Measured values published in publication PMC6934184, “Selective DNA-PKcs inhibition extends the therapeutic index of localized radiotherapy and chemotherapy” (The Journal of Clinical Investigation, 2019).

Biological target: T1, STK4 (MST1) (Homo sapiens, UniProt Q13043)
T1 construct: purchased Thermo Fisher Scientific (Life Technologies) SelectScreen
Test: SelectScreen Z'LYTE
Assay type: biochemical
How it was run: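 SelectScreen broad panel; activity (Z'LYTE, Adapta) plus binding formats. ATP: Km app for CSF1R Z'LYTE; 10 for CAMK1 Adapta. Readout = % per kinase.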

T1 sequence (Q13043 whole entry): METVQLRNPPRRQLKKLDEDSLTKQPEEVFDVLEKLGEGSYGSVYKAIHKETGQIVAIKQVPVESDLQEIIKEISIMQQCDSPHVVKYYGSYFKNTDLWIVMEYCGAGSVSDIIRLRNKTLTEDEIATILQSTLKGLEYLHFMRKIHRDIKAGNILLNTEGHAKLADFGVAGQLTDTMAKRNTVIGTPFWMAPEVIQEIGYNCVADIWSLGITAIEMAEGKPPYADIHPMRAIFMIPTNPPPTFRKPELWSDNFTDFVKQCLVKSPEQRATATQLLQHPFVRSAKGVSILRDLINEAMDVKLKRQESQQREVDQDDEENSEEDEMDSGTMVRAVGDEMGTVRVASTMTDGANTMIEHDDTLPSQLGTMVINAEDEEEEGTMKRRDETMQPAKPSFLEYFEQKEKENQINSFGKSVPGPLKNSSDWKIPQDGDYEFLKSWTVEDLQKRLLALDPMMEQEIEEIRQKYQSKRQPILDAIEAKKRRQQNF

With `CN(C(=O)CN1CCOCC1)c1ccc2sc3c(-c4cccc5c(=O)cc(N6CC7CCC(C6)O7)oc45)cccc3c2c1` [NU5455] the inhibition at 1 µM was -4.4%.
